From patent US20100305098A1, “METHODS OF USE” (priority 2007, published 2010)

Assays:
NMU1 = molecular target: T1, NMU1 (Homo sapiens, UniProt Q9HB89); test: FLIPR functional screen; format: cell-based; conditions: antagonist mode
T1 construct: Millipore

Y1 = molecular target: T2, Y1 (Homo sapiens, UniProt P25929); test: FLIPR functional screen; format: cell-based; conditions: antagonist mode
T2 construct: Millipore

SECRETIN = molecular target: T3, SECRETIN (Homo sapiens, UniProt P47872); test: FLIPR functional screen; format: cell-based; conditions: antagonist mode
T3 construct: Millipore
T3 sequence (P47872 23-440): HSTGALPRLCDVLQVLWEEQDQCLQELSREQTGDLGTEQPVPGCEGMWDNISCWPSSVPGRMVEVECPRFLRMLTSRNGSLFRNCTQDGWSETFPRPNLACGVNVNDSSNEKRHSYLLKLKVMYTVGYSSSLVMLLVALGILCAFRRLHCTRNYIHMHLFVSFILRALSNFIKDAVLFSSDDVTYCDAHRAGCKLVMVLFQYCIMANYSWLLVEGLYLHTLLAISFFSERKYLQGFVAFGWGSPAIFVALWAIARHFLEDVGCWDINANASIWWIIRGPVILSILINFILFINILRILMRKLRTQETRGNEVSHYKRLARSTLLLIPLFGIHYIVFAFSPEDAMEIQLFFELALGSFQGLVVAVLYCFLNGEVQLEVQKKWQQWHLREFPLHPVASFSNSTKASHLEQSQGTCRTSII

TRH = molecular target: T4, TRH (Homo sapiens, UniProt P34981); test: FLIPR functional screen; format: cell-based; conditions: antagonist mode
T4 construct: Millipore
T4 sequence (P34981 whole entry): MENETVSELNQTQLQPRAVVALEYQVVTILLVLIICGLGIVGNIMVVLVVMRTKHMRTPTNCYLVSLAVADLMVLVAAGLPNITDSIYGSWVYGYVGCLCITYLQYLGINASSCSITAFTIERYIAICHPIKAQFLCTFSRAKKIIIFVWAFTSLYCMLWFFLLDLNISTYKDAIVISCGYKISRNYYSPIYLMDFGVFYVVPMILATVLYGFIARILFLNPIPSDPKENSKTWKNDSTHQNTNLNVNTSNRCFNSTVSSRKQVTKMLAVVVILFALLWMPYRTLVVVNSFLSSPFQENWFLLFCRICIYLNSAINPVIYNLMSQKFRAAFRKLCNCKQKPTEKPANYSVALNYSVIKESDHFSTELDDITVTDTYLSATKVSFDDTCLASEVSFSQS

CYSLT2 = molecular target: T5, CYSLT2 (Homo sapiens, UniProt Q9NS75); test: FLIPR functional screen; format: cell-based; conditions: antagonist mode
T5 construct: Millipore
T5 sequence (Q9NS75 whole entry, species assumed): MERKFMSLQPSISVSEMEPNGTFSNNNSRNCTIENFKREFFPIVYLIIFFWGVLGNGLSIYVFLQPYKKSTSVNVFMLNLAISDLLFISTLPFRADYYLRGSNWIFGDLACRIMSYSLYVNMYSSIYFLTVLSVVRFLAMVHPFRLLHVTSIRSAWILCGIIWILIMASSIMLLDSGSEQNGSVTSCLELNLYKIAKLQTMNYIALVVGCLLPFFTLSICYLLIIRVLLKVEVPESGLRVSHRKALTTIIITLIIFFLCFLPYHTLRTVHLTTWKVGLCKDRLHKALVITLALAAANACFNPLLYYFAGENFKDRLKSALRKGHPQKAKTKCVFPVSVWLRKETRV

CB2 = molecular target: T6, CB2 (Homo sapiens, UniProt P34972); test: FLIPR functional screen; format: cell-based; conditions: antagonist mode
T6 construct: Millipore

LPA1 = molecular target: T7, LPA1 (Homo sapiens, UniProt Q92633); test: FLIPR functional screen; format: cell-based; conditions: antagonist mode
T7 construct: Millipore
T7 sequence (Q92633 whole entry, species assumed): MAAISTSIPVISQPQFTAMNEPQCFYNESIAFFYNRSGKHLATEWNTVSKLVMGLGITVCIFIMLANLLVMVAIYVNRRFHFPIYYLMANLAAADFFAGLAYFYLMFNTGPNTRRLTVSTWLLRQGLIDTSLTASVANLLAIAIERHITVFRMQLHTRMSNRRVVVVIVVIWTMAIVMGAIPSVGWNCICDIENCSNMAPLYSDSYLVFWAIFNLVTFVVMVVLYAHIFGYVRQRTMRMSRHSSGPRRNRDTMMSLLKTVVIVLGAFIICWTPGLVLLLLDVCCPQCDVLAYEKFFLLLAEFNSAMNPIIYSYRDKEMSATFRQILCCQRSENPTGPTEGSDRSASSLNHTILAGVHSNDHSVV

D5 = molecular target: T8, D5 (Homo sapiens, UniProt P21918); test: FLIPR functional screen; format: cell-based; conditions: antagonist mode
T8 construct: Millipore

CCR8 = molecular target: T9, CCR8 (Homo sapiens, UniProt P51685); test: FLIPR functional screen; format: cell-based; conditions: antagonist mode
T9 construct: Millipore

OX1 = molecular target: T10, OX1 (Homo sapiens, UniProt O43613); test: FLIPR functional screen; format: cell-based; conditions: antagonist mode
T10 construct: Millipore
T10 sequence (O43613 whole entry): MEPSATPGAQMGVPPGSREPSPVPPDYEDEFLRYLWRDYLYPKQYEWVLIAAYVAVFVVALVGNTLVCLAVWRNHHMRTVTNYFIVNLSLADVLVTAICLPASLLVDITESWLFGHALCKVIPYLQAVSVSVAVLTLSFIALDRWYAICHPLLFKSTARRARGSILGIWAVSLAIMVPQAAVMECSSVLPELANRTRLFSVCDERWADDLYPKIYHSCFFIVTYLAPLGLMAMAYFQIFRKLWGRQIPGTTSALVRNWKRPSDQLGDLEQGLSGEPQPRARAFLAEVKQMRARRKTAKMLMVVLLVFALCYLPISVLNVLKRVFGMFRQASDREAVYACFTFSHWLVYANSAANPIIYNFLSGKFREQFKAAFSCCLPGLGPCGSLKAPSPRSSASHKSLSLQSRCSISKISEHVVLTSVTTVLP

ADRA2A = molecular target: T11, ADRA2A (Homo sapiens, UniProt P08913); test: FLIPR functional screen; format: cell-based; conditions: antagonist mode
T11 construct: purchased Millipore (outsourced screen)
T11 sequence (P08913 whole entry): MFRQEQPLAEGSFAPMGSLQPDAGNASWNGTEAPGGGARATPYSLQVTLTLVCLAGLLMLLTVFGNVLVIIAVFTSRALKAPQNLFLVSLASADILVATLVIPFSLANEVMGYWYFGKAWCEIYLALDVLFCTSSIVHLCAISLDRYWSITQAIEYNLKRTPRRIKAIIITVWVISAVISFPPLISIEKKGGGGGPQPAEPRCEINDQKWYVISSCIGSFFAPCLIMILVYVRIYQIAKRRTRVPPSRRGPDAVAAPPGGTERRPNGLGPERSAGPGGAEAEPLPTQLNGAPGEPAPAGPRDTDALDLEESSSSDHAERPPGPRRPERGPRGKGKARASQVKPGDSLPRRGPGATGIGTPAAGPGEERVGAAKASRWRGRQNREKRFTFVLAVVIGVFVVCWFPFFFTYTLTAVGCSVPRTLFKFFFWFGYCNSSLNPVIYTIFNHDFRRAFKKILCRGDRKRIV

PTH1 = molecular target: T12, PTH1 (Homo sapiens, UniProt Q03431); test: FLIPR functional screen; format: cell-based; conditions: antagonist mode
T12 construct: Millipore

GPR103 = molecular target: T13, GPR103 (Homo sapiens, UniProt Q96P65); test: FLIPR functional screen; format: cell-based; conditions: antagonist mode
T13 construct: Millipore
T13 sequence (Q96P65 whole entry, species assumed): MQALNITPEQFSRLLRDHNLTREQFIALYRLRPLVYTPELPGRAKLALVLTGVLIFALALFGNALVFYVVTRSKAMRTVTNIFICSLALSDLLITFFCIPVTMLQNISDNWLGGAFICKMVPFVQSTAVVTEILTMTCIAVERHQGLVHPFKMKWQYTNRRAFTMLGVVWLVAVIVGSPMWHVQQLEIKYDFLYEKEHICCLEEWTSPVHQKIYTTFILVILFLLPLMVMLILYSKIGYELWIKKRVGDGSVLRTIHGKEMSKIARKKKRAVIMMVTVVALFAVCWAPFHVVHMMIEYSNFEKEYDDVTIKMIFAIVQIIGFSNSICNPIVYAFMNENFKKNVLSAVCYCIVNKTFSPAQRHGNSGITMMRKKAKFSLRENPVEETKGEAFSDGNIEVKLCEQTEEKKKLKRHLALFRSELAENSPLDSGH

V2 = molecular target: T14, V2 (Homo sapiens, UniProt P30518); test: FLIPR functional screen; format: cell-based; conditions: antagonist mode
T14 construct: Millipore

S1P3 = molecular target: T15, S1P3 (Homo sapiens, UniProt Q99500); test: FLIPR functional screen; format: cell-based; conditions: antagonist mode
T15 construct: Millipore

ETA = molecular target: T16, ETA (Homo sapiens, UniProt P25101); test: FLIPR functional screen; format: cell-based; conditions: antagonist mode
T16 construct: Millipore

[1] = molecular target: T17, Leukotriene, Cysteinyl CysLT2 (Homo sapiens, UniProt Q9NS75); test: Competitive radioligand binding (MDS Pharma)
T17 construct: purchased MDS Pharma (outsourced assay)
T17 sequence (Q9NS75 whole entry): as the sequence (Q9NS75 whole entry, species assumed) above

CYSLT1 = molecular target: T18, CYSLT1 (Homo sapiens, UniProt Q9Y271); test: FLIPR functional screen; format: cell-based; conditions: antagonist mode
T18 construct: Millipore

ADRB3 = molecular target: T19, ADRB3 (Homo sapiens, UniProt P13945); test: FLIPR functional screen; format: cell-based; conditions: antagonist mode
T19 construct: purchased Millipore (outsourced screen)

PTH2 = molecular target: T20, PTH2 (Homo sapiens, UniProt P49190); test: FLIPR functional screen; format: cell-based; conditions: antagonist mode
T20 construct: Millipore

CCR9 = molecular target: T21, CCR9 (Homo sapiens, UniProt P51686); test: FLIPR functional screen; format: cell-based; conditions: antagonist mode
T21 construct: Millipore

TP = molecular target: T22, TP (Homo sapiens, UniProt P21731); test: FLIPR functional screen; format: cell-based; conditions: antagonist mode
T22 construct: Millipore

ADRB1 = molecular target: T23, ADRB1 (Homo sapiens, UniProt P08588); test: FLIPR functional screen; format: cell-based; conditions: antagonist mode
T23 construct: purchased Millipore (outsourced screen)

S1P4 = molecular target: T24, S1P4 (Homo sapiens, UniProt O95977); test: FLIPR functional screen; format: cell-based; conditions: antagonist mode
T24 construct: Millipore
T24 sequence (O95977 whole entry, species assumed): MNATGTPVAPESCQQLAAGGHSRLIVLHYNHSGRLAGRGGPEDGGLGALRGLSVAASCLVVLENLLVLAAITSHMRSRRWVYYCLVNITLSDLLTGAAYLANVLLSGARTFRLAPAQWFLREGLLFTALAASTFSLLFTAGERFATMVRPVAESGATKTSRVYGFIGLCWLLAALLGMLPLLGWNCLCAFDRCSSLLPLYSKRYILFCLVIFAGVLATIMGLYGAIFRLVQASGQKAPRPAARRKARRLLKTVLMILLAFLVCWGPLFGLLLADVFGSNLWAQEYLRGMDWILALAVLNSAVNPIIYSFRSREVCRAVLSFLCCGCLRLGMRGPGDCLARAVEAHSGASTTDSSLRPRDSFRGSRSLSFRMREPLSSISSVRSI

CCR10 = molecular target: T25, CCR10 (Homo sapiens, UniProt P46092); test: FLIPR functional screen; format: cell-based; conditions: antagonist mode
T25 construct: Millipore

A1 = molecular target: T26, A1 (Homo sapiens, UniProt P30542); test: FLIPR functional screen; format: cell-based; conditions: antagonist mode
T26 construct: purchased Millipore (outsourced screen)

D2 = molecular target: T27, D2 (Homo sapiens, UniProt P14416); test: FLIPR functional screen; format: cell-based; conditions: antagonist mode
T27 construct: Millipore

FPR1 = molecular target: T28, FPR1 (Homo sapiens, UniProt P21462); test: FLIPR functional screen; format: cell-based; conditions: antagonist mode
T28 construct: Millipore

CRF2 = molecular target: T29, CRF2 (Homo sapiens, UniProt Q13324); test: FLIPR functional screen; format: cell-based; conditions: antagonist mode
T29 construct: Millipore
T29 sequence (Q13324 whole entry): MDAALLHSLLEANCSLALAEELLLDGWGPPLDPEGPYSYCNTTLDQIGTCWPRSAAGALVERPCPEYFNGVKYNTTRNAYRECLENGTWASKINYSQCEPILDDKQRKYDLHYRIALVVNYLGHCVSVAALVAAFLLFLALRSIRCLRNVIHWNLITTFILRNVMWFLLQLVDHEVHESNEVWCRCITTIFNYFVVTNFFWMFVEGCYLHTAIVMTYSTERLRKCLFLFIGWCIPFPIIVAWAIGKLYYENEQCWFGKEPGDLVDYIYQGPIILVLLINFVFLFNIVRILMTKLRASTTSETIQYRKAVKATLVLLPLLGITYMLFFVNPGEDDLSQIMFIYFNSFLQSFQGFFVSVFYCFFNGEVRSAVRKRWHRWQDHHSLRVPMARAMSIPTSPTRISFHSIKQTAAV

H1 = molecular target: T30, H1 (Homo sapiens, UniProt P35367); test: FLIPR functional screen; format: cell-based; conditions: antagonist mode
T30 construct: Millipore

EP4 = molecular target: T31, EP4 (Homo sapiens, UniProt P35408); test: PGE2 induced CRE-PLAP reporter assay in SE302 cells; format: cell-based; conditions: read-out: IC50 against PGE2 induced CRE-PLAP reporter activity
T31 construct: SE302 cells that express endogenous EP4; endogenous in cells; host or cells: SE302 cells
Experimental: CRE-PLAP reporter assay. SE302 cells that express endogenous EP4 were stimulated with PGE2 in the presence or absence of ER-819762 for overnight, and PLAP activity was measured.

S1P1 = molecular target: T32, S1P1 (Homo sapiens, UniProt P21453); test: FLIPR functional screen; format: cell-based; conditions: antagonist mode
T32 construct: Millipore
T32 sequence (P21453 whole entry, species assumed): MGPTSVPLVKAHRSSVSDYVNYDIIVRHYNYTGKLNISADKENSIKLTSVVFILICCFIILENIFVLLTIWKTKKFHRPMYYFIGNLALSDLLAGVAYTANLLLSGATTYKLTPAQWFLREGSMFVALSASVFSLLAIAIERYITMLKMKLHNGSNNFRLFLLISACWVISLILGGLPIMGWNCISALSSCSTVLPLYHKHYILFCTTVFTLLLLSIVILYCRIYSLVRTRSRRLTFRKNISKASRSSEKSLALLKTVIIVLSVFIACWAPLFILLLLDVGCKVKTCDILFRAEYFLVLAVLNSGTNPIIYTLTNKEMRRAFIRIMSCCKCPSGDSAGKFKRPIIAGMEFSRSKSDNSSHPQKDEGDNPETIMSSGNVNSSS

M5 = molecular target: T33, M5 (Homo sapiens, UniProt P08912); test: FLIPR functional screen; format: cell-based; conditions: antagonist mode
T33 construct: Millipore

PAR2 = molecular target: T34, PAR2 (Homo sapiens, UniProt P55085); test: FLIPR functional screen; format: cell-based; conditions: antagonist mode
T34 construct: Millipore

DP = molecular target: T35, DP (Homo sapiens, UniProt Q13258); test: FLIPR functional screen; format: cell-based; conditions: antagonist mode
T35 construct: Millipore
T35 sequence (Q13258 whole entry): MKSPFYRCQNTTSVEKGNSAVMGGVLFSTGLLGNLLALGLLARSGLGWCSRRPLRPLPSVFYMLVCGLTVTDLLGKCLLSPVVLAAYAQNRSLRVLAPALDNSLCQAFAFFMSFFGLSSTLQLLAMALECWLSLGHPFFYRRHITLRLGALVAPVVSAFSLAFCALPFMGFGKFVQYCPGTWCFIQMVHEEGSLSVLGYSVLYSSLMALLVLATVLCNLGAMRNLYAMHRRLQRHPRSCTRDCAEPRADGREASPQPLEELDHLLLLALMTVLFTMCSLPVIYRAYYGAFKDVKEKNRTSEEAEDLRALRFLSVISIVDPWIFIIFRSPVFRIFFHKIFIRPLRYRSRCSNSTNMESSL

GPR40 = molecular target: T36, GPR40 (Homo sapiens, UniProt O14842); test: FLIPR functional screen; format: cell-based; conditions: antagonist mode
T36 construct: Millipore

CAS = molecular target: T37, CAS (Homo sapiens, UniProt P41180); test: FLIPR functional screen; format: cell-based; conditions: antagonist mode
T37 construct: Millipore

PK2 = molecular target: T38, PK2 (Homo sapiens, UniProt Q8NFJ6); test: FLIPR functional screen; format: cell-based; conditions: antagonist mode
T38 construct: Millipore

T2 sequence (P25929 whole entry): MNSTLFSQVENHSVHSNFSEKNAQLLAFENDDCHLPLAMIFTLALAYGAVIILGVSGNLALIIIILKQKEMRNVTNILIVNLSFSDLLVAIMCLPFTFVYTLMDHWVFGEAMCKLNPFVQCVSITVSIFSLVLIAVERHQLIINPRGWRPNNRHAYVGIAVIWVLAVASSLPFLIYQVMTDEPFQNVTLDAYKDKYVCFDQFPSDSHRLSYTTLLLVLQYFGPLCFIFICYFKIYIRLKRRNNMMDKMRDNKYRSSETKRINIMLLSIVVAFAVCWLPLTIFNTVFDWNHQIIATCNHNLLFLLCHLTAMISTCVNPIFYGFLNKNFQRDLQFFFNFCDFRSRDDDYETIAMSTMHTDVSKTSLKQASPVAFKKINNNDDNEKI

**Q.** What does the source list for CCN1C(=O)N2Cc3cc(OC)cc(OC)c3[C@@H](C)C=C2C12CCN(Cc1cccn1C)CC2 [ER-819924-01]?
**A.** inhibition at 1 µM (NMU1): -14%; inhibition at 1 µM (Y1): -22.7%; inhibition at 1 µM (SECRETIN): 11.3%; inhibition at 1 µM (TRH): -11.1%; inhibition at 1 µM (CYSLT2): 4.5%; inhibition at 1 µM (CB2): 9.3%; inhibition at 1 µM (LPA1): 8%; inhibition at 1 µM (D5): 34.7%; inhibition at 1 µM (CCR8): 2.9%; inhibition at 1 µM (OX1): 0.7%; inhibition at 1 µM (ADRA2A): 3.3%; inhibition at 1 µM (PTH1): 3.9%; inhibition at 1 µM (GPR103): 0.4%; inhibition at 1 µM (V2): -24.8%; inhibition at 1 µM (S1P3): 8.9%; inhibition at 1 µM (ETA): 9%; % INHIBITION ([1]; CONC. 0.1 μm): 3%; % INHIBITION ([1]; CONC. 1 μm): 0%; inhibition at 1 µM (CYSLT1): -1.6%; inhibition at 1 µM (ADRB3): 11.4%; inhibition at 1 µM (PTH2): -6.2%; inhibition at 1 µM (CCR9): -9.1%; inhibition at 1 µM (TP): 1.8%; inhibition at 1 µM (ADRB1): -15.3%; inhibition at 1 µM (S1P4): -6.6%; inhibition at 1 µM (CCR10): 2.2%; inhibition at 1 µM (A1): 2.2%; inhibition at 1 µM (D2): -4.6%; inhibition at 1 µM (FPR1): 8%; inhibition at 1 µM (CRF2): -7%; inhibition at 1 µM (H1): -39.3%; IC50 (EP4): 28 nM; inhibition at 1 µM (S1P1): 3.9%; inhibition at 1 µM (M5): 10.1%; inhibition at 1 µM (PAR2): -0.8%; inhibition at 1 µM (DP): -5.8%; inhibition at 1 µM (GPR40): -4.6%; inhibition at 1 µM (CAS): 7.2%; inhibition at 1 µM (PK2): -3.8%
